Measurements published in patent US6562834B2, “Combination comprising camptothecin and a stilbene derivative for the treatment of cancer” (Aventis Pharma S. A., priority 2000, dated 2003).

Test system: colon adenocarcinoma C51
Test: Antitumor effect and safety of CPT-11, combretastatin and their combinations in mice bearing colon adenocarcinoma C51
Assay type: in vivo
Procedure: This efficacy may be quantified, for example by the log10 cells killed, which is determined by the following formula:
log10 cells killed=T−C(days)/3.32×Td
in which T−C represents the time taken for the cells to grow, which is the mean time in days for the tumors of the treated group (T) to reach a predetermined value (1 g for example) and the tumors of the control group (C) to reach the same value, and Td represents the time in days needed for the volume of the tumors in the control group to double. (T. H. Corbett et al., Cancer, 40, 2660.2680 (1977); F. M. Schabel et al., Cancer Drug Development, Part B, Methods in Cancer Research, 17, 3-51, New York, Academic Press Inc. (1979)). A product is considered to be active if log10 cells killed is greater than or equal to 0.7. A product is considered to be very active if the log10 cells killed is greater than 2.8.
The effect of the combination of CPT-11 and combretastatin was evaluated in mice bearing colon adenocarcinoma C51. CPT-11 was given orally on days two through five, […], at different dosage levels. Combretastatin was administered intravenously, two times a day, on days one to five. In the combination arms, three different dosages of CPT-11 were administered orally twice daily on days two through five and three different dosages of combretastatin were administered intravenously twice a day on days one through five.
Combretastatin, administered intravenously, and CPT-11, administered orally, were tested in several different schedules as reported in Table IV. When used as a single agent, combretastatin was administered twice a day for five consecutive days. When CPT-11 was administered alone, it was given once a day for four consecutive days.
When administered sequentially, two schedules were used. When combretastatin was given first, it was administered on day 1, followed by administration of CPT-11 once a day on days 2-5. When CPT-11 was the first compound given in the sequence, it was administered once a day on days 1-4, followed by combretastatin on day 5.

CCc1c2c(nc3ccc(OC(=O)N4CCC(N5CCCCC5)CC4)cc13)-c1cc3c(c(=O)n1C2)COC(=O)[C@]3(O)CC [CPT-11, irinotecan]
highest non-toxic dose (CPT-11 oral, single agent, mice): 400 mg/kg
Log10 Cell Kill (single agent CPT-11 oral 400 mg/kg (highest non-toxic dose), Colon 51, tumor size 400-500 mg, Td = 2.4 d): 1.1

Combretastatin
Colon 51 PR (partial response: mice with decrease in tumor volume of at least 50% / mice tested) (single agent combretastatin IV 116.5 mg/kg/injection (highest non-toxic dose)): 5/5
Log10 Cell Kill (single agent combretastatin IV 116.5 mg/kg/injection (highest non-toxic dose), 2 x/day days 1-5, Colon 51): 1.3
